The values below come from PubChem BioAssay AID256 (DTP/NCI, 2004).

Several values for one entry are separate records, joined by “and”; a condition that tells them apart may be missing. Identical values can stand only once. Inconclusive results and toxic doses are left out.

The test system of the assay is CD2F1 mice, L1210 leukemia ip, survival T/C. The experiment in a line: NCI In Vivo Anticancer Drug Screen. Data for tumor model L1210 Leukemia (intraperitoneal) in CD2F1 (CDF1) mice. The settings on record: higher = longer survival. In short, it runs like this:
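Antitumor effect is scored in animals hosting a serially transplanted tumor. Values compare compound-dosed animals against vehicle-only controls as a simple quotient.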

The mark [1] stands for this setting: endpoint: mean survival time, dose: 100.0 mg/kg/injection, schedule: Q01DX001 (ip), vehicle: saline.
Where [2] appears, read: endpoint: mean survival time, dose: 200.0 mg/kg/injection, schedule: Q01DX001 (ip), vehicle: saline.
[3] abbreviates: endpoint: mean survival time, dose: 100.0 mg/kg/injection, schedule: Q04DX003 (ip), vehicle: saline.
Where [4] appears, read: endpoint: mean survival time, dose: 200.0 mg/kg/injection, schedule: Q04DX003 (ip), vehicle: saline.
Setting [5] is: endpoint: mean survival time, dose: 400.0 mg/kg/injection, schedule: Q04DX003 (ip), vehicle: saline.
Where [6] appears, read: endpoint: mean survival time, dose: 400.0 mg/kg/injection, schedule: Q01DX001 (ip), vehicle: saline.
[7] abbreviates: endpoint: mean survival time, dose: 100.0 mg/kg/injection, schedule: Q04DX003 (ip), vehicle: Klucel (hydroxypropylcellulose) (HPC).
Where [8] appears, read: endpoint: mean survival time, dose: 200.0 mg/kg/injection, schedule: Q04DX003 (ip), vehicle: Klucel (hydroxypropylcellulose) (HPC).
[9] abbreviates: endpoint: mean survival time, dose: 400.0 mg/kg/injection, schedule: Q04DX003 (ip), vehicle: Klucel (hydroxypropylcellulose) (HPC).
[10] abbreviates: endpoint: mean survival time, dose: 100.0 mg/kg/injection, schedule: Q04DX003 (ip), vehicle: saline with Tween-80.
Where [11] appears, read: endpoint: mean survival time, dose: 200.0 mg/kg/injection, schedule: Q04DX003 (ip), vehicle: saline with Tween-80.
Setting [12] is: endpoint: mean survival time, dose: 400.0 mg/kg/injection, schedule: Q04DX003 (ip), vehicle: saline with Tween-80.
[13] abbreviates: endpoint: mean survival time, dose: 100.0 mg/kg/injection, schedule: Q01DX009 (ip), vehicle: saline.
[14] abbreviates: endpoint: mean survival time, dose: 200.0 mg/kg/injection, schedule: Q01DX009 (ip), vehicle: saline.
The mark [15] stands for this setting: endpoint: mean survival time, dose: 400.0 mg/kg/injection, schedule: Q01DX009 (ip), vehicle: saline.
Setting [16] is: endpoint: mean survival time, dose: 100.0 mg/kg/injection, schedule: Q01DX009 (ip), vehicle: saline with Tween-80.
Setting [17] is: endpoint: mean survival time, dose: 200.0 mg/kg/injection, schedule: Q01DX009 (ip), vehicle: saline with Tween-80.
[18] abbreviates: endpoint: mean survival time, dose: 400.0 mg/kg/injection, schedule: Q01DX009 (ip), vehicle: saline with Tween-80.
The mark [19] stands for this setting: endpoint: mean survival time, dose: 50.0 mg/kg/injection, schedule: Q01DX009 (ip), vehicle: saline with Tween-80.
Setting [20] is: endpoint: mean survival time, dose: 25.0 mg/kg/injection, schedule: Q01DX009 (ip), vehicle: saline with Tween-80.

For the molecule `NC(=O)c1cnn2ccn(C3OC(CO)C(O)C3O)c12` (stereo unspecified), the T/C by setting is: (endpoint: median survival time, dose: 9.63 mg/kg/injection, schedule: Q01DX005 (ip), vehicle: water) 102 % of control; (endpoint: median survival time, dose: 19.25 mg/kg/injection, schedule: Q01DX005 (ip), vehicle: water) 94 % of control; (endpoint: median survival time, dose: 38.5 mg/kg/injection, schedule: Q01DX005 (ip), vehicle: water) 104 % of control; (endpoint: median survival time, dose: 77.0 mg/kg/injection, schedule: Q01DX005 (ip), vehicle: water) 100 % of control; (endpoint: median survival time, dose: 154.0 mg/kg/injection, schedule: Q01DX005 (ip), vehicle: water) 93 % of control.
In the case of `CC1CCC(C(C)C)/C(=N/NC(=O)CC#N)C1` (stereo unspecified), the T/C is, setting by setting: under setting [1], 98 % of control; under setting [2], 95 % of control.
For the molecule `CCCC[N+](=O)[O-]`, the T/C is 98 % of control under setting [3], 100 % of control under setting [4] and 102 % of control under setting [5].
In the case of `CCC(=O)C(=O)c1ccccc1`, the T/C reads like this: under setting [1], 101 % of control; under setting [2], 98 % of control; under setting [6], 101 % of control.
In the case of `O=C1c2cccc(Cl)c2C(=O)c2c1cccc2[N+](=O)[O-]`, the T/C was 90 % of control under setting [7], 102 % of control under setting [8] and 98 % of control under setting [9].
`N#Cc1c(F)c(F)c(NN)c(F)c1F`: the T/C under setting [10] is 93 % of control and the T/C under setting [11] was 89 % of control.
On to `Nc1ccc(N=Nc2ccc(S(=O)(=O)O)cc2)cc1`, for which the T/C by setting is: under setting [10], 97 % of control; under setting [11], 93 % of control; under setting [12], 97 % of control.
Turning to `Cc1c2cc[n+](CCN3CCCCC3)cc2c(C)c2c1[nH]c1ccc(O)cc12`, the T/C was 160 % of control (endpoint: mean survival time, dose: 1.56 mg/kg/injection, schedule: Q01DX009 (ip), vehicle: suspension in saline); 150 % of control (endpoint: mean survival time, dose: 12.5 mg/kg/injection, schedule: Q01DX009 (ip), vehicle: saline); 121 % of control (endpoint: mean survival time, dose: 12.5 mg/kg/injection, schedule: Q01DX009 (ip), vehicle: suspension in saline); 188 % of control (endpoint: mean survival time, dose: 50.0 mg/kg/injection, schedule: Q01DX009 (ip), vehicle: saline); 92 % of control (endpoint: mean survival time, dose: 50.0 mg/kg/injection, schedule: Q01DX009 (ip), vehicle: suspension in saline).
`O=CNC(Cc1ccc(O)cc1)C(=O)O` (stereo unspecified): the T/C is, setting by setting: under setting [13], 97 % of control; under setting [14], 94 % of control; under setting [15], 89 % of control.
On the same counts, the results for `c1cncc(C2OCCO2)c1` are 105 % of control, 100 % of control and 100 % of control.
For the molecule `COC(=O)C(C(=O)OC)C(Br)(OC(C)=O)OC(C)=O`, the T/C under setting [16] was 97 % of control, the T/C under setting [17] is 104 % of control and the T/C under setting [18] is 109 % of control.
In the case of `CCOC(CN(N=O)c1ccccc1C(C)C)OCC`, the T/C is 98 % of control under setting [16]; 103 % of control under setting [10]; 93 % of control under setting [17]; 98 % of control under setting [11]; 97 % of control under setting [12].
Consider `CCC1(C)CC(=O)NC1=O` (stereo unspecified), for which the T/C was 98 % of control (endpoint: mean survival time, dose: 75.0 mg/kg/injection, schedule: Q01DX001 (ip), vehicle: saline); 104 % of control (endpoint: mean survival time, dose: 150.0 mg/kg/injection, schedule: Q01DX001 (ip), vehicle: saline); 96 % of control (endpoint: mean survival time, dose: 300.0 mg/kg/injection, schedule: Q01DX001 (ip), vehicle: saline).
As to `CC(=O)c1cccc(N=C(N)N)c1`, the T/C is, setting by setting: (endpoint: mean survival time, dose: 75.0 mg/kg/injection, schedule: Q01DX001 (ip), vehicle: saline with Tween-80) 98 % of control; (endpoint: mean survival time, dose: 150.0 mg/kg/injection, schedule: Q01DX001 (ip), vehicle: saline with Tween-80) 96 % of control; (endpoint: mean survival time, dose: 300.0 mg/kg/injection, schedule: Q01DX001 (ip), vehicle: saline with Tween-80) 97 % of control.
In the case of `COc1ccc(CCNC(=O)Cc2ccc3cc(OC)c(OC)cc3c2)cc1OC`, the T/C was 91 % of control under setting [16], 95 % of control under setting [10], 89 % of control under setting [17] and 100 % of control under setting [11].
On to `COc1ccc(OCCOC(=O)Nc2ccc(Cl)cc2C)cc1`, for which the T/C was 90 % of control under setting [19], 96 % of control under setting [16] and 100 % of control under setting [17].
For `O=C(c1ccccc1)C1(Br)CCCCC1`, the T/C (endpoint: mean survival time, dose: 50.0 mg/kg/injection, schedule: Q04DX003 (ip), vehicle: saline) is 95 % of control; the T/C under setting [7] is 101 % of control; the T/C under setting [3] is 96 % of control; the T/C under setting [8] was 96 % of control; the T/C under setting [4] was 93 % of control; the T/C under setting [9] is 106 % of control. In addition, under setting [5], the T/C was 98 % of control.
For `OCC1OC(O)C(O)C(O)C1O` (stereo unspecified), the T/C is 103 % of control under setting [3], 98 % of control under setting [4] and 98 % of control under setting [5].
`NC(=O)Cc1ccccc1[N+](=O)[O-]`: the T/C is 95 % of control (endpoint: mean survival time, dose: 50.0 mg/kg/injection, schedule: Q01DX001 (ip), vehicle: saline with Tween-80); 104 % of control (endpoint: mean survival time, dose: 100.0 mg/kg/injection, schedule: Q01DX001 (ip), vehicle: saline with Tween-80); 106 % of control (endpoint: mean survival time, dose: 200.0 mg/kg/injection, schedule: Q01DX001 (ip), vehicle: saline with Tween-80).
On to `CCOC(C(=O)OC1CCN(C)CC1)(c1ccccc1)c1ccccc1`, for which the T/C runs as follows: under setting [20], 98 % of control; under setting [19], 98 % of control; under setting [16], 93 % of control.
On to `CC(C)CCCC(C)C1CCC2C3CC=C4CC(OCCO)CCC4(C)C3CCC12C` (stereo unspecified), for which the T/C is, setting by setting: (endpoint: mean survival time, dose: 25.0 mg/kg/injection, schedule: Q01DX009 (ip), vehicle: other) 104 % of control; (endpoint: mean survival time, dose: 50.0 mg/kg/injection, schedule: Q01DX009 (ip), vehicle: other) 101 % of control; (endpoint: mean survival time, dose: 100.0 mg/kg/injection, schedule: Q01DX009 (ip), vehicle: other) 87 % of control.
Regarding `Nc1ccccc1Sc1ccc2c3c(cccc13)C(=O)N(c1ccccc1)C2=O`, the T/C (endpoint: mean survival time, dose: 25.0 mg/kg/injection, schedule: Q04DX002 (ip), vehicle: saline with Tween-80) is 95 % of control; the T/C (endpoint: mean survival time, dose: 50.0 mg/kg/injection, schedule: Q04DX002 (ip), vehicle: saline with Tween-80) was 98 % of control; the T/C (endpoint: mean survival time, dose: 100.0 mg/kg/injection, schedule: Q04DX002 (ip), vehicle: saline with Tween-80) was 87 % of control.
For `O=C1NC(=O)/C(=C/C=C/c2ccccc2)S1`, the T/C reads like this: (endpoint: mean survival time, dose: 12.5 mg/kg/injection, schedule: Q01DX009 (ip), vehicle: saline with Tween-80) 94 % of control and 101 % of control; under setting [20], 95 % of control and 109 % of control; under setting [19], 97 % of control and 101 % of control; under setting [16], 98 % of control and 101 % of control; under setting [17], 95 % of control and 103 % of control; under setting [18], 104 % of control.
For `OC1OCC(COc2ccc(Cl)cc2)OC1O` (stereo unspecified), the T/C reads like this: (endpoint: median survival time, dose: 25.0 mg/kg/injection, schedule: Q01DX005 (ip), vehicle: saline with Tween-80) 102 % of control; (endpoint: median survival time, dose: 50.0 mg/kg/injection, schedule: Q01DX005 (ip), vehicle: saline with Tween-80) 102 % of control; (endpoint: median survival time, dose: 100.0 mg/kg/injection, schedule: Q01DX005 (ip), vehicle: saline with Tween-80) 115 % of control; (endpoint: median survival time, dose: 144.0 mg/kg/injection, schedule: Q01DX005 (ip), vehicle: saline with Tween-80) 102 % of control; (endpoint: median survival time, dose: 200.0 mg/kg/injection, schedule: Q01DX005 (ip), vehicle: saline with Tween-80) 117 % of control; (endpoint: median survival time, dose: 240.0 mg/kg/injection, schedule: Q01DX005 (ip), vehicle: saline with Tween-80) 101 % of control. Moreover, for the setting “endpoint: median survival time, dose: 400.0 mg/kg/injection, schedule: Q01DX005 (ip), vehicle: saline with Tween-80”, the T/C is 96 % of control.
With `CCCC(C)(C)OC(=O)c1ccc([N+](=O)[O-])cc1`, the T/C by setting is: under setting [1], 96 % of control; under setting [2], 98 % of control; under setting [6], 100 % of control.
